Measured values from patent US20250214977A1, “STAT6 INHIBITORS AND USES THEREOF” (Kymera Therapeutics, Inc., priority 2024, published 2025).

system: Phosphorylation of STAT6 in human A549 cells; test: Phosphorylated STAT6 (pSTAT6) flow cytometry assay in human A549 cells; assay type: cell-based; settings: read-out: STAT6 IL4 pSTAT6 assay in A549 cells: Average IC50
Excerpt: Example 3. Phosphorylated STAT6 (pSTAT6) Flow Cytometry Assay in Human A549 Cells
Phosphorylation of STAT6 in human A549 cells was quantitatively measured using flow cytometry technology.

| Compound | IC50 [µM] |
| --- | --- |
| COc1cc(F)cnc1N1CCN(C(=O)c2cc3c(-c4cccc5c4OCCCO5)cc(C4=CCCN(C(=O)CCn5ccnn5)C4)c(F)c3[nH]2)CC1 [Example I-678] | < 0.1 |
| CCSc1ccccc1-c1cc(C2=CCCN(C(=O)CCn3ccnn3)C2)c(F)c2[nH]c(C(=O)N3CCN(c4ncc(F)cc4OC)CC3)cc12 [Example I-679] | < 0.1 |
| COc1cc(F)cnc1N1CCN(C(=O)c2cc3c(-c4ccnc(N5CCOCC5)c4)cc(C4=CCCN(C(=O)CCn5ccnn5)C4)c(F)c3[nH]2)CC1 [Example I-680] | < 0.1 |
| COc1cc(F)cnc1N1CCN(C(=O)c2cc3c(-c4cccc(C(C)(C)C#N)c4)cc(C4=CCCN(C(=O)CCn5ccnn5)C4)c(F)c3[nH]2)CC1 [Example I-682] | < 0.1 |
| CCc1ccncc1-c1cc(C2=CCCN(C(=O)CCn3cccn3)C2)c(F)c2[nH]c(C(=O)N3CCN(c4ncc(OC)cc4OC)CC3)cc12 [Example I-683] | < 0.1 |
| CCc1cnccc1-c1cc(C2=CCCN(C(=O)CCn3cccn3)C2)c(F)c2[nH]c(C(=O)N3CCN(c4ncc(OC)cc4OC)CC3)cc12 [Example I-684] | < 0.1 |
| COc1cc(F)cnc1N1CCN(C(=O)c2cc3c(-c4ccncc4C(C)C)cc(C4=CCCN(C(=O)CCn5cccn5)C4)c(F)c3[nH]2)CC1 [Example I-685] | < 0.1 |
| CCc1ccncc1-c1cc(C2=CCCN(C(=O)CCn3cccn3)C2)c(F)c2[nH]c(C(=O)N3CCN(c4ncc(F)cc4OC)CC3)cc12 [Example I-686] | < 0.1 |
| COc1ccccc1-c1cc(C2=CCCN(C(=O)CCn3cccn3)C2)c(F)c2[nH]c(C(=O)N3CCN(c4ncc(F)cc4OC)CC3)cc12 [Example I-687] | < 0.1 |
| CCc1cnccc1-c1cc(C2=CCCN(C(=O)CCn3cccn3)C2)c(F)c2[nH]c(C(=O)N3CCN(c4ncc(F)cc4OC)CC3)cc12 [Example I-688] | < 0.1 |
| CCc1cnccc1-c1cc(C2=CCCN(C(=O)CCn3ccnn3)C2)c(F)c2[nH]c(C(=O)N3CCN(c4ncc(F)cc4OC)CC3)cc12 [Example I-689] | < 0.1 |
| COc1cccnc1N1CCN(C(=O)c2cc3c(-c4cccc5c4OC(F)(F)O5)cc(C4=CCCN(C(=O)CCn5ccnn5)C4)c(F)c3[nH]2)CC1 [Example I-690] | < 0.1 |
| COc1cc2c(-c3cc(C4=CCCN(C(=O)CCn5ccnn5)C4)c(F)c4[nH]c(C(=O)N5CCN(c6ncc(F)cc6OC)CC5)cc34)ccnc2cc1F [Example I-691] | < 0.1 |
| CCc1nccn1-c1cc(C2=CCCN(C(=O)CCn3ccnn3)C2)c(F)c2[nH]c(C(=O)N3CCN(c4ncccc4OC)CC3)cc12 [Example I-692] | > 100 |
| CCCc1cc(C2=CCCN(C(=O)CCn3ccnn3)C2)c(F)c2[nH]c(C(=O)N3CCN(c4ncc(F)cc4OC)CC3)cc12 [Example I-693] | > 100 |
| COc1cc(F)cnc1N1CCN(C(=O)c2cc3c(C4CC4)cc(C4=CCCN(C(=O)CCn5ccnn5)C4)c(F)c3[nH]2)CC1 [Example I-694] | > 100 |
| CCCCCCc1cc(C2=CCCN(C(=O)CCn3ccnn3)C2)c(F)c2[nH]c(C(=O)N3CCN(c4ncc(F)cc4OC)CC3)cc12 [Example I-695] | > 100 |
| COc1ccncc1-c1cc(C2=CCCN(C(C)=O)C2)c(F)c2[nH]c(C(=O)N3CCN(c4ncc(F)cc4OC)CC3)cc12 [Example I-696] | > 100 |
| COc1cnccc1-c1cc(C2=CCCN(C(C)=O)C2)c(F)c2[nH]c(C(=O)N3CCN(c4ncc(F)cc4OC)CC3)cc12 [Example I-697] | > 100 |

| Compound | IC50 [µM] |
| --- | --- |
| COc1cccnc1N1CCN(C(=O)c2cc3c(C4CCC5(CCNCC5)CC4)cc(C4=CCCN(C(=O)CCn5ccnn5)C4)c(F)c3[nH]2)CC1 [Example I-698] | 10 to 100 |
| CCc1ccncc1-c1cc(C2=CCCN(C(C)=O)C2)c(F)c2[nH]c(C(=O)N3CCN(c4cc(F)cnc4OC)CC3)cc12 [Example I-699] | 10 to 100 |
| CCc1ccccc1-c1cc(C2=CCCN(C(=O)CCn3ccnn3)C2)c(F)c2[nH]c(C(=O)N3Cc4cnn(C)c4C3)cc12 [Example I-700] | 10 to 100 |
| COc1ccncc1-c1cc(C2=CCCN(C(C)=O)C2)c(F)c2[nH]c(C(=O)N3Cc4cnn(C)c4C3)cc12 [Example I-701] | 10 to 100 |
| CCc1ccncc1-c1cc(C2=CCCN(C(C)=O)C2)c(F)c2[nH]c(C(=O)N3Cc4cnn(C)c4C3)cc12 [Example I-702] | 10 to 100 |
| COc1cc(F)cnc1N1CCN(C(=O)c2cc3c(-c4ccncc4C(C)C)cc(C4=CCCN(C(=O)CCn5ccnn5)C4)c(F)c3[nH]2)CC1 [Example I-703] | 10 to 100 |
| CCc1ccncc1-c1cc(C2=CCCN(C(=O)CCn3ccnn3)C2)c(F)c2[nH]c(C(=O)N3Cc4cnn(C)c4C3)cc12 [Example I-704] | 10 to 100 |
| CCc1cnccc1-c1cc(C2=CCCN(C(C)=O)C2)c(F)c2[nH]c(C(=O)N3Cc4cnn(C)c4C3)cc12 [Example I-705] | 10 to 100 |
| CCc1cnccc1-c1cc(C2=CCCN(C(C)=O)C2)c(F)c2[nH]c(C(=O)N3CCN(c4ncc(F)cc4OC)CC3)cc12 [Example I-706] | 10 to 100 |
| CCc1cc(C)ncc1-c1cc(C2=CCCN(C(=O)CCn3ccnn3)C2)c(F)c2[nH]c(C(=O)N3CCN(c4ncc(F)cc4OC)CC3)cc12 [Example I-707] | 10 to 100 |
| CCc1ccncc1-c1cc(C2=CCCN(C(=O)OC)C2)c(F)c2[nH]c(C(=O)N3CCN(c4ncc(F)cc4OC)CC3)cc12 [Example I-708] | 10 to 100 |
| CCn1ncc2c1CN(C(=O)c1cc3c(-c4ccncc4OC)cc(C4=CCCN(C(C)=O)C4)c(F)c3[nH]1)C2 [Example I-715] | 10 to 100 |
| COc1ncccc1-c1cc(C(=O)N2Cc3cnn(C)c3C2)cc2cc(C3=CCCN(C(=O)CCn4ccnn4)C3)n(CC3CC3)c12 [Example I-717] | 10 to 100 |
| COc1cccnc1N1CCN(C(=O)c2cc3c(-c4cnc(C)c(C)c4OC)cc(C4=CCCN(C(=O)CCn5ccnn5)C4)c(F)c3[nH]2)CC1 [Example I-724] | < 0.1 |
| COc1cc(F)cnc1N1CCN(C(=O)c2cc3c(C4CCN(C)CC4)cc(C4=CCCN(C(=O)CCn5ccnn5)C4)c(F)c3[nH]2)CC1 [Example I-725] | < 0.1 |
| COc1cc(F)cnc1N1CCN(C(=O)c2cc(-c3cccnc3OC)c3c(c2)cc(C2=CCCN(C(=O)CCn4ccnn4)C2)n3CC2CC2)CC1 [Example I-726] | < 0.1 |
| CCc1ccncc1-c1cc(C(=O)N2Cc3cnn(C)c3C2)cc2cc(C3=CCCN(C(=O)CCn4ccnn4)C3)n(CC3CC3)c12 [Example I-727] | < 0.1 |
| COc1cc(F)cnc1N1CCN(C(=O)c2cc(-c3cccnc3C3CC3)c3c(c2)cc(C2=CCCN(C(=O)CCn4ccnn4)C2)n3CC2CC2)CC1 [Example I-728] | > 100 |
| COc1cnccc1-c1cc(C(=O)N2CCN(c3ncc(F)cc3OC)CC2)cc2cc(C3=CCCN(C(=O)CCn4ccnn4)C3)n(CC3CC3)c12 [Example I-729] | < 0.1 |

| Compound | IC50 [µM] |
| --- | --- |
| CCC1=C(c2cc(C3=CCCN(C(=O)CCn4ccnn4)C3)c(F)c3[nH]c(C(=O)N4CCN(c5ncc(F)cc5OC)CC4)cc23)CN(C)CC1 [Example I-730] | < 0.1 |
| CCC1=C(c2cc(C3=CCCN(C(=O)CCn4ccnn4)C3)c(F)c3[nH]c(C(=O)N4CCN(c5ncc(F)cc5OC)CC4)cc23)CCNC1 [Example I-731] | < 0.1 |
| CCn1c(C2=CCCN(C(=O)CCn3ccnn3)C2)cc2cc(C(=O)N3CCN(c4ncc(F)cc4OC)CC3)cc(-c3ccccc3OC)c21 [Example I-734] | < 0.1 |
| CCc1nc(C)ccc1-c1cc(C2=CCCN(C(=O)CCn3ccnn3)C2)c(F)c2[nH]c(C(=O)N3CCN(c4ncc(F)cc4OC)CC3)cc12 [Example I-735] | < 0.1 |
| COc1ccccc1-c1cc(C(=O)N2Cc3cnn(C)c3C2)cc2cc(C3=CCCN(C(=O)CCn4ccnn4)C3)n(CC3CC3)c12 [Example I-736] | < 0.1 |
| CCc1cc(C)ncc1-c1cc(C2=CCCN(C(=O)CCn3ccnn3)C2)c(F)c2[nH]c(C(=O)N3CCN(c4nc(C)c(F)cc4OC)CC3)cc12 [Example I-737] | < 0.1 |
| CCc1cc(C)ncc1-c1cc(C2=CCCN(C(=O)CCn3cccn3)C2)c(F)c2[nH]c(C(=O)N3CCN(c4nc(C)c(F)cc4OC)CC3)cc12 [Example I-738] | < 0.1 |
| CCc1cc(C)ncc1-c1cc(C2=CCCN(C(=O)CCn3ccnn3)C2)c(F)c2[nH]c(C(=O)N3CCN(c4ccc(F)cc4OC)CC3)cc12 [Example I-739] | < 0.1 |
| COc1cc(F)c(C)nc1N1CCN(C(=O)c2cc3c(-c4cnc(C)cc4C(C)C)cc(C4=CCCN(C(=O)CCn5ccnn5)C4)c(F)c3[nH]2)CC1 [Example I-740] | < 0.1 |
| CCc1cc(CC)c(-c2cc(C3=CCCN(C(=O)CCn4cccn4)C3)c(F)c3[nH]c(C(=O)N4CCN(c5nc(C)c(F)cc5OC)CC4)cc23)cn1 [Example I-741] | 0.1 to 1 |
| CCc1cc(C)ncc1-c1cc(C2=CCCN(C(=O)CCn3ccnn3)C2)c(F)c2[nH]c(C(=O)N3CCN(c4ncc(F)cc4OC)CC3)cc12 [Example I-742] | < 0.1 |
| CCC1=C(c2cc(C3=CCCN(C(=O)CCn4ccnn4)C3)c(F)c3[nH]c(C(=O)N4CCN(c5ncc(F)cc5OC)CC4)cc23)CNCC1 [Example I-743] | < 0.1 |
| CCc1ccc(-c2cc(C3=CCCN(C(=O)CCn4ccnn4)C3)c(F)c3[nH]c(C(=O)N4Cc5cnn(CC)c5C4)cc23)c(C)n1 [Example I-761] | > 100 |
| CCn1ncc2c1CN(C(=O)c1cc3c(-c4ccc(C5CC5)nc4C)cc(C4=CCCN(C(=O)CCn5ccnn5)C4)c(F)c3[nH]1)C2 [Example I-762] | > 100 |
| CCc1cc(C(F)F)ncc1-c1cc(C2=CCCN(C(=O)CCn3ccnn3)C2)c(F)c2[nH]c(C(=O)N3CCN(c4nc(C)c(F)cc4OC)CC3)cc12 [Example I-763] | < 0.1 |
| CCc1nc(C)ncc1-c1cc(C2=CCCN(C(=O)CCn3ccnn3)C2)c(F)c2[nH]c(C(=O)N3Cc4cnn(CC)c4C3)cc12 [Example I-764] | < 0.1 |
| CCn1ncc2c1CN(C(=O)c1cc(C3=CCCCC3)c3c(c1)cc(C1=CCCN(C(=O)CCn4ccnn4)C1)n3CC1CC1)C2 [Example I-765] | < 0.1 |
| CCn1ncc2c1CN(C(=O)c1cc3c(-c4cnc(C5CC5)cc4C)cc(C4=CCCN(C(=O)CCn5ccnn5)C4)c(F)c3[nH]1)C2 [Example I-766] | > 100 |
